Laboratory results published in ChEMBL document CHEMBL1158852, “A new sesquiterpene ester from Celastrus orbiculatus reversing multidrug resistance in cancer cells” (J Nat Prod, 1998).

Assays:
[1] = test system: NCI-H23; assay: Cytotoxicity against human NCI-H23 cells by SRB assay; format: functional, cell-based
[2] = test system: KBV1; assay: Inhibition of P-gp-mediated multidrug resistance assessed as ratio of Adriamycin IC50 for drug-resistant human KBV1 cells to drug-sensitive human KB-3-1 cells at 3 uM; format: cell-based
[3] = test system: MCF7; assay: Cytotoxicity against human MCF7 cells by SRB assay; format: functional, cell-based
[4] = test system: UACC-62; assay: Cytotoxicity against human UACC62 cells by SRB assay; format: functional, cell-based
[5] = Cytotoxicity against drug-resistant human MCF7/ADR cells by SRB assay; format: functional, cell-based; settings: NCI/ADR-RES
[6] = test system: SK-OV-3; assay: Cytotoxicity against human SKOV3 cells by SRB assay; format: functional, cell-based
[7] = test system: SNB-19; assay: Cytotoxicity against human SNB19 cells by SRB assay; format: functional, cell-based
[8] = Cytotoxicity against drug-resistant human MCF7/ADR cells in presence of 10 uM Adriamycin by SRB assay; format: functional, cell-based; settings: NCI/ADR-RES
[9] = Cytotoxicity against drug-resistant human KBV1 cells by SRB assay; format: functional, cell-based; settings: KB-V1
[10] = test system: KBV1; assay: Inhibition of P-gp-mediated multidrug resistance assessed as ratio of Vinblastine IC50 for drug-resistant human KBV1 cells to drug-sensitive human KB-3-1 cells at 3 uM; format: cell-based
[11] = Cytotoxicity against human MOLT cells by SRB assay; format: functional, cell-based
[12] = test system: KM12; assay: Cytotoxicity against human KM12 cells by SRB assay; format: functional, cell-based
[13] = Cytotoxicity against drug-resistant human KBV1 cells in presence of 0.1 uM Vinblastine by SRB assay; format: functional, cell-based; settings: KB-V1
[14] = Cytotoxicity against human KB-3-1 cells by SRB assay; format: functional, cell-based
[15] = test system: KBV1; assay: Inhibition of P-gp-mediated multidrug resistance assessed as ratio of Paclitaxel IC50 for drug-resistant human KBV1 cells to drug-sensitive human KB-3-1 cells at 3 uM; format: cell-based

Molecule `CC(=O)O[C@H]1CC[C@@H](C)[C@]23OC(C)(C)[C@H](C[C@H](OC(=O)c4ccccc4)[C@]12C)[C@H]3OC(=O)c1ccccc1` has an IC50 [1] of 16.8 µM, a Ratio IC50 [2] of 98.8 and an IC50 [3] of 10.8 µM. It also gave an IC50 [4] of 12.9 µM, an IC50 [5] of 14.4 µM and an IC50 [6] of 19.3 µM. The IC50 [7] was 18.3 µM, the IC50 [8] was 1.39 µM and the IC50 [9] was 13 µM. For the same molecule, the Ratio IC50 [10] was 63.9, the IC50 [11] was 3.05 µM and the IC50 [12] was 14.9 µM. It also gave an IC50 [13] of 1.36 µM, an IC50 [14] of 9.26 µM and a Ratio IC50 [15] of 37.1.

`CC(=O)O[C@H]1C[C@@H](C)[C@]23OC(C)(C)[C@H](C[C@H](OC(=O)c4ccccc4)[C@]2(C)[C@H]1OC(C)=O)[C@H]3OC(=O)c1ccccc1` [ORBICULIN A] showed an IC50 [1] of 41.9 µM, an IC50 [3] of 53.2 µM and an IC50 [4] of 38.8 µM. It also gave an IC50 [5] of 61.9 µM, an IC50 [6] of 48.4 µM and an IC50 [7] of 40.8 µM. It also gave an IC50 [8] of 1.15 µM, an IC50 [9] of 64.9 µM and an IC50 [11] of 7.33 µM. The IC50 [12] was 38.6 µM, the IC50 [13] was 0.8 µM and the IC50 [14] was 49 µM.
